{
  "source": "patent US20260335468A1",
  "about": "“MOLECULAR RADIOAFTERGLOW PROBES FOR CANCER RADIODYNAMIC THERANOSTICS” (NANYANG TECHNOLOGICAL UNIVERSITY, priority 2023, published 2026)",
  "key": {"[1]": {"assay": "^1O2 generation upon X-ray irradiation (ESR, TEMP trap)", "assay_type": "physicochemical", "conditions": "X-ray irradiation, ESR", "experimental": "To study ^1O2 generation, a mixture of DPAS or IDPAS (100 M) and TEMP (10 mM) in PBS (0.01 M, pH 7.4, 50% DMSO) was irradiated by X-rays at 2 Gy (100 mGy s^−1 for 20 s) or 5 mGy (250 μGy s^−1 for 20 s). The ESR signals of the mixture were recorded with a Bruker A300 instrument. The ESR signal of the free radical 2,2,6,6-tetramethyl-1-piperidinyloxyl (g=2.0060) was generated by the reaction of ^1O2 with TEMP. The ^1O2 quencher NaN3 (1 mM) was added to validate the afterglow mechanism of IDPASu. Additionally, other commercially available radio sensitizers (such as acridine orange, hematoporphyrin and verteporfin) were measured and compared. The procedure of block depths was similar to that of the tissue penetration depth study and the ^1O2 generation for different depth tissues was measured. The ESR signal changes of MRAP in the absence or presence of CatB were measured in a similar way. The ESR signals of 2,2,6,6-tetramethyl-1-piperidinyloxyl from the reaction of ^1O2 with TEMP were plotted as a function of the concentration of ^1O2, which was generated by the addition of NaOCl to H2O2. This generated the standard curve between the ESR intensity and ^1O2 concentration."}, "[2]": {"assay": "Afterglow through chicken breast tissue (tissue penetration depth study)", "assay_type": "physicochemical", "experimental": "IDPASu (100 M, 100 l) solution in a round cap with a diameter of 1 cm was prepared and placed under the chicken breast tissue with different thicknesses (0, 1.0, 2.5, 5.0, 10.0 and 15.0 cm). To avoid the influence of afterglow intensity differences on tissue penetration, the X-ray source (Moxtek, Inc.) and xenon lamp (PLS-SEX300D, Beijing Perfectlight Technology Co., Ltd.) were optimized to ensure that all the samples at 0 cm (without coverage) received the same dose of X-rays (5 mGy, 250 μGy s^−1 for 20 s) or light (180 mW cm^−2 for 20 s) and thus the same afterglow intensity. After the cessation of irradiation, radio afterglow or photoafterglow was detected with or without the chicken breast tissues using the IVIS bioluminescence mode with an open filter and acquisition time of 120 s.\nTo induce afterglow, IDPASu was irradiated with X-ray or light through chicken breast tissues before signal detection (FIGS. 11a-b). To eliminate the influence of intensity difference on tissue penetration, X-ray and light irradiation were optimized to ensure similar intensity without tissue coverage. […] Radio afterglow of IDPASu was inducible and detectable even through ~15 cm tissue, showing ~4.2-fold higher signal than that of IDPASu without X-ray irradiation and tissue (FIG. 11d)."}, "Heat generation study": {"assay": "Heat generation study", "assay_type": "physicochemical", "conditions": "100 μM, X-ray 5 mGy", "experimental": "IDPASu (100 μM, 100 μL) solution and PBS in a round cap with the diameter of 1 cm were prepared and then irradiated by X-ray at dose of 5 mGy (250 μGy·s^−1 for 20 s), respectively. The temperatures of the IDPASu solution and PBS were recorded by FUR Infrared Camera (FLIR A35-Series, FUR Systems)."}, "subcutaneous U87 tumour": {"system": "subcutaneous U87 tumour", "assay": "RDT of subcutaneous U87 tumour-bearing mice with IDPASu", "assay_type": "in vivo, mouse (BALB/c nude), human U87", "conditions": "intratumoral, X-ray total 0.3 Gy in three fractions", "experimental": "To establish a subcutaneous glioblastoma mouse model, BALB/c nude mice (six weeks old, female) were anaesthetized with isoflurane (2.0%) and subcutaneously injected with human U87 or U87-Luc (2×10^6 per mouse) suspended in PBS (0.01 M, pH 7.4) on the left flank or bilateral flank of each mouse. The tumour size was calculated according to the formula V=½ab^2, where a and b are the longest and shortest diameter of the tumour, respectively. After tumour sizes reached ~70 mm^3, the mice were used for imaging and therapy. […] At 15 min post-injection, bioluminescence signals were recorded using an IVIS imaging system with an open filter and automatic acquisition time. […]\nFor subcutaneous tumour therapy, to study the X-ray dynamic activity of IDPASu, U87-tumour-bearing mice were randomly divided into four groups (PBS, PBS+X-ray, IDPASu and IDPASu+X-ray), which includes five mice per group. […] The tumour volume and body weight of mice were monitored every two days. […] The brain tumour size was monitored using bioluminescence signals of luciferin from the tumour site every three days. […]"}},
  "data": [
    {"smiles": "COC(=C1C2CC3CC(C2)CC1C3)c1cc(O)c(I)cc1/C=C/C1=CC(=C(C#N)C#N)c2ccccc2S1", "note": "[IDPASu]", "values": [
      {"measurement": "^1O2 generation / radiodynamic activity", "setting": "[1]", "result": "the highest"},
      {"measurement": "radio afterglow signal through ~15 cm tissue versus IDPASu without X-ray irradiation and tissue", "setting": "[2]; 15 cm chicken breast tissue", "result": "~ 4.2 fold"},
      {"measurement": "penetration depth, Detection with tissue (induction without tissue)", "setting": "[2]; X-ray 0.005 Gy", "result": 15, "unit": "cm"},
      {"measurement": "penetration depth, Induction and detection through tissue", "setting": "[2]; X-ray 0.005 Gy", "result": 5, "unit": "cm"},
      {"measurement": "radio afterglow intensity at tissue depth of 1 cm", "setting": "[2]; induction by X-ray through tissue, detection without tissue", "result": "~ 1.79×10^6 photons s^−1 cm^−2 sr^−1"},
      {"measurement": "photoafterglow intensity at tissue depth of 1 cm", "setting": "[2]; induction by light through tissue, detection without tissue", "result": "7.20×10^4 photons s^−1 cm^−2 sr^−1"},
      {"measurement": "heat generation upon radiation", "setting": "Heat generation study", "result": "did not cause any heat generation"},
      {"measurement": "body weight loss", "setting": "subcutaneous U87 tumour", "result": "no loss in body weight"},
      {"measurement": "tumour growth", "setting": "subcutaneous U87 tumour", "result": "completely inhibited the tumour growth"}
    ]}
  ]
}
